Source: patent publication US20260000676A1, “CHROMAN DERIVATIVES AS ESTROGEN RECEPTOR DEGRADERS” (THE REGENTS OF THE UNIVERSITY OF MICHIGAN, priority 2022, published 2026)
Where a name gives a salt, the structure may show the parent alone.

Key:
ERα_LBD(GST) = ERα_LBD(GST) (Homo sapiens (Human), UniProt P03372); test: LanthaScreen TR-FRET ERα competitive binding assay; settings: read-out: ERα HTRF IC50
Description: • 1. ERα_LBD(GST) protein: 4 nM • 2. Tb Anti-GST: 2 nM • 3. Fluormone ES2 Green tracer: 3 nM • 4. Incubation time: 60 min • 5. DMSO: 1% • 6. Assay buffer: Adding 1M DTT to Nuclear receptor Buffer K for final 5 mM DTT. • 7. ZPE: 1% DMSO • 8. HPE: 1 μM ARV_471 • 9. LanthaScreen® TR-FRET ERα Competitive Binding Assay (ThermoFisher, #A15887)
• 1) Cherry pick 2 μL 10 mM compound stock to column 1 of a 384 intermediate plate • 2) Add 18 μL DMSO to column 1 to dilute compound to 1 mM. • 3) Transfer 10 μL 1 mM compound to column 1 of a LDV plate. • 2) Add 6 μl DMSO to column 2-10 of the LDV plate. • 3) Compounds undergo 3-fold serial dilution (3 μL+6 μL) in DMSO. • 4) Transfer 120 nL compound solution to assay plate. • ZPE: 120 nL 100% DMSO
Prepare complete nuclear receptor buffer K by adding 1 M DTT to nuclear receptor buffer K for a final concentration of 5 mM DTT. Complete nuclear receptor buffer K must be prepared fresh daily. Prepare 2× protein solution using complete nuclear receptor buffer K containing 8 nM ERα_LBD(GST) and 4 nM Tb Anti-GST. Then, prepare 2× Fluormone ES2 Green tracer (6 nM) using complete nuclear receptor buffer K. Add 6 μL 2× Fluormone ES2 green tracer into a compound plate (PerkinElmer 6008289) by dragonfly with one-tips-addition. Subsequently, add 6 μL 2× protein solution into the plate. Briefly and gently mix the 384-well plate on a plate shaker and incubate at room temperature protected from light for 60 min. The plate is sealed with a cover to minimize evaporation. Read the plate at wavelengths of 520 nm and 495 nm. Calculate the TR-FRET ratio by dividing the emission signal at 520 nm by the emission signal at 495 nm. Generate a binding curve by plotting the emission ratio vs. the log [ligand]. To determine the IC50 value, fit the data using XL-fit for a sigmoidal dose-response.

ER [1] = biological target: T1, ER (Homo sapiens (Human), UniProt P03372); test: In-cell western (ICW) ER degradation assay in MCF-7 cells; assay type: cell-based; settings: MCF7, 16 hrs; for DC50: ER degradation; for MCF7 Dmax %: maximal ER degradation; for Dmax: MCF7, maximal ER degradation
CRBN/DDB1 = CRBN/DDB1 (Homo sapiens (Human), UniProt Q96SW2); test: HTRF binding assay to CRBN/DDB1; settings: read-out: CRBN HTRF IC50
Description: The binding potency was determined using HTRF assay technology (Perkin Elmer). Compounds were serially diluted in DMSO and 0.2 μL volume was transferred to white 384-well plate.

ER [2] = biological target: T1, ER; test: In-cell western (ICW) ER degradation assay in T47D cells; assay type: cell-based; settings: 16 hrs; for DC50: ER degradation; for T47D Dmax % / Dmax: maximal ER degradation

T1 sequence (P03372 whole entry): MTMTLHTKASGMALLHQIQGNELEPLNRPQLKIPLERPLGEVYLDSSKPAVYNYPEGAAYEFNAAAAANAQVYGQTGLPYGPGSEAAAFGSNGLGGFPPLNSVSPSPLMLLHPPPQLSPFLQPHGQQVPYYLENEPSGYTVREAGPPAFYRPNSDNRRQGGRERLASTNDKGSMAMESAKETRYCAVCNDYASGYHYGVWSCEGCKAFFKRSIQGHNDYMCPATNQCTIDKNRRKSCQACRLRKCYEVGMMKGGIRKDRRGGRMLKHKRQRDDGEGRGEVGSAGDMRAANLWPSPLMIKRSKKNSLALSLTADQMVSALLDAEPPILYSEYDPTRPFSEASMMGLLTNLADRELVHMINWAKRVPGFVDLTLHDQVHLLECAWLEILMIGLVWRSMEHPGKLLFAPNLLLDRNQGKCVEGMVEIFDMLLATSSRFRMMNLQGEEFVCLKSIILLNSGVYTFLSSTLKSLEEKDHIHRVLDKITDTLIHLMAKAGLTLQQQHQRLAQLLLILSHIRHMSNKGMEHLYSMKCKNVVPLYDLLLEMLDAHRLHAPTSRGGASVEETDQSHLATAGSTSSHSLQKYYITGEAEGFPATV
CRBN/DDB1, sequence (Q96SW2 whole entry): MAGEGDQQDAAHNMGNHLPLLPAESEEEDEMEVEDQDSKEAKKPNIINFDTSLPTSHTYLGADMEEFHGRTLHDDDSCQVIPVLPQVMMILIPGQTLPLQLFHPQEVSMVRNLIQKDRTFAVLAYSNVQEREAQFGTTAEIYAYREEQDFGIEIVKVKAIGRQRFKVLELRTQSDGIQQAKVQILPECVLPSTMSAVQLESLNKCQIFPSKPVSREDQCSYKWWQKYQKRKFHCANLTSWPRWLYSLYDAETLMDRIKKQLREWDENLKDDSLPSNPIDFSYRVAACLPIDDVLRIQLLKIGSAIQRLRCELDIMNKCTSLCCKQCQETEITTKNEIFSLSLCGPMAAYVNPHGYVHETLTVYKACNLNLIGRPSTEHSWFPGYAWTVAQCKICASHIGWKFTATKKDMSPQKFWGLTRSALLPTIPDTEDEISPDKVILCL
CRBN/DDB1, sequence (Q16531 whole entry partner): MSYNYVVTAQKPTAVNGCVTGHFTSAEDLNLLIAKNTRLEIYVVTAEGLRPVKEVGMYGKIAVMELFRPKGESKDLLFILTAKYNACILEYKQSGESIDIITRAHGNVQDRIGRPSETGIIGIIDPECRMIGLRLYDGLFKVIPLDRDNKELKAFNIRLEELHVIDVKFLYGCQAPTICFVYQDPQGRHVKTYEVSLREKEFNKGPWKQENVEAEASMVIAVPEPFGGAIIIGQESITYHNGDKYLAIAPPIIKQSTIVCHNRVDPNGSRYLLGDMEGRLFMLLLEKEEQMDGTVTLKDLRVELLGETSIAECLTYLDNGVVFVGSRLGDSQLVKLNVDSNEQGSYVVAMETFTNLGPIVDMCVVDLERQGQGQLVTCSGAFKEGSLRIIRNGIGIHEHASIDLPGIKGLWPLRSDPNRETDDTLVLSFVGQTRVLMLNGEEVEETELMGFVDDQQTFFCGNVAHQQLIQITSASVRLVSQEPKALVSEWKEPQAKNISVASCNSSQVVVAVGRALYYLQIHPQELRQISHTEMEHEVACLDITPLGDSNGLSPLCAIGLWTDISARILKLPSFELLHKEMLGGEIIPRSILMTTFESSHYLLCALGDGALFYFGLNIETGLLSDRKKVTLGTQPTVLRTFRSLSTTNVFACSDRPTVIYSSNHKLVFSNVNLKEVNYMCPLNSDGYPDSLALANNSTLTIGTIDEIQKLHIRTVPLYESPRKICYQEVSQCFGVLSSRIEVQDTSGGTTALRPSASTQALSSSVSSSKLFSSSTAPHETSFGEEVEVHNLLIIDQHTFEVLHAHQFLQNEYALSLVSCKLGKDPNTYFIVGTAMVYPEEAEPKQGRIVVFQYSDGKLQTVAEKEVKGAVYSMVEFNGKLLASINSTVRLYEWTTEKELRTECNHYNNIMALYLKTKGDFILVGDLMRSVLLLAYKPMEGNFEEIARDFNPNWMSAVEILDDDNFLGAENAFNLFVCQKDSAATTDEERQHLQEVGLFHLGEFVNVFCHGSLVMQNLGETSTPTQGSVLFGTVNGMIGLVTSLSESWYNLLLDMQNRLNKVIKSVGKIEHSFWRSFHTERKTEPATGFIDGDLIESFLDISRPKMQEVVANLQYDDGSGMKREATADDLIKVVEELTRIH
ERα_LBD(GST), sequence (P03372 311-547): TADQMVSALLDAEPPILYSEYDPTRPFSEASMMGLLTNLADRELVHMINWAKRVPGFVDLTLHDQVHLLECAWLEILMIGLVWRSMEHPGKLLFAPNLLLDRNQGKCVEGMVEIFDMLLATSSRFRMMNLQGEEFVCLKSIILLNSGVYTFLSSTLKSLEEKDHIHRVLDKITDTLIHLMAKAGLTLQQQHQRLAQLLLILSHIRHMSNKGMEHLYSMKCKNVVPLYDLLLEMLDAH

Compound	IC50 (ERα_LBD(GST)) [nM]	DC50 (ER [1]) [nM]	MCF7 Dmax % (ER [1])	IC50 (CRBN/DDB1) [nM]	DC50 (ER [2]) [nM]	T47D Dmax % (ER [2])	Dmax (ER [1]) [%]	Dmax (ER [2]) [%]	Dmax (ER [2]; given as number) [%]	DC50 (ER [1]; given as number) [nM]
O=C1CCC(N2Cc3c(ccc4c3OC[C@@H]3CN(CC5CC6(CCN(c7ccc([C@H]8c9ccc(O)cc9OC[C@H]8c8ccccc8)cc7)CC6)C5)CCN43)C2=O)C(=O)N1 (single isomer, unassigned) [Compound A21]	< 5	–	–	–	–	–	–	–	–	–
O=C1CCC(N2Cc3cc4c(cc3C2=O)OC[C@@H]2CN(CC3CCC5(CC3)CN(c3ccc([C@@H]6c7ccc(O)cc7OC[C@@H]6c6ccccc6)cc3)C5)CCN42)C(=O)N1 (stereo partly drawn) [Compound A63, 3-((S)-3-((2-(4-((3S,4R)-7-hydroxy-3-phenylchroman-4-yl)phenyl)-2-azaspiro[3.5]nonan-7-yl)methyl)-8-oxo-1,2,3,4,4a,5,8,10-octahydro-9H-pyrazino[1′,2′:4,5][1,4]oxazino[2,3-f]isoindol-9-yl)piperidine-2,6-dione]	–	> 100	D (“D”; <25%)	500 to 5000	> 100	D (“D”; <25%)	–	–	–	–
O=C1CC[C@@H](Nc2ccc(C3CCN(C[C@@H]4COC5(CCN(c6ccc([C@H]7c8ccc(O)cc8OC[C@H]7c7ccccc7)cc6)CC5)C4)CC3)c(F)c2)C(=O)N1 (mixture of isomers) [Compound A162, 3-((3-fluoro-4-(1-(((R)-8-(4-((3RS, 4SR)-7-hydroxy-3-phenylchroman-4-yl)phenyl)-1-oxa-8-azaspiro[4.5]decan-3-yl)methyl)piperidin-4-yl)phenyl)amino)piperidine-2,6-dione]	–	< 1	–	< 50	< 1	–	25 to 50	≥ 75	–	–
O=C1CCC(N2Cc3cc(N4CCN(CC5CC6(CCN(c7ccc([C@@H]8c9ccc(O)cc9OC[C@@H]8c8ccccc8)cn7)CC6)C5)CC4)ccc3C2=O)C(=O)N1 (single isomer, unassigned) [Compound A67]	–	> 100	D (“D”; <25%)	50 to 500	10 to 100	D (“D”; <25%)	–	–	–	–
COc1cc(N2CCC3(CC2)CC(CN2CCN4c5ccc6c(c5OC[C@@H]4C2)CN([C@@H]2CCC(=O)NC2=O)C6=O)C3)c(F)cc1[C@H]1c2ccc(O)cc2OC[C@H]1c1ccccc1 [Compound A126, (R)-3-((S)-7-((7-(2-fluoro-4-((3R,4R)-7-hydroxy-3-phenylchroman-4-yl)-5-methoxyphenyl)-7-azaspiro[3.5]nonan-2-yl)methyl)-1-oxo-1,3,5,5a,6,7,8,9-octahydro-2H-pyrazino[1′,2′:4,5][1,4]oxazino[2,3-e]isoindol-2-yl)piperidine-2,6-dione]	–	1 to 10	–	< 50	< 1	–	25 to 50	50 to 75	–	–
COc1cc(N2CCC(CN3CCN4c5ccc(C(=O)NC6CCC(=O)NC6=O)nc5OC[C@H]4C3)CC2)ccc1C1c2ccc(O)cc2OCC1c1ccccc1 (stereo in doubt) [Compound A134, (4aR)—N-(2,6-dioxopiperidin-3-yl)-3-((1-(4-((3R,4S)-7-hydroxy-3-phenylchroman-4-yl)-3-methoxyphenyl)piperidin-4-yl)methyl)-1,2,3,4,4a, 5-hexahydropyrazino[1,2-d]pyrido[2,3-b][1,4]oxazine-8-carboxamide]	–	< 1	–	500 to 5000	< 1	–	≥ 75	≥ 75	–	–
O=C1CC[C@@H](Nc2ccc(C3CCN(C[C@H]4COC5(CCN(c6ccc([C@H]7c8ccc(O)cc8OC[C@H]7c7ccccc7)cc6)CC5)C4)CC3)c(F)c2)C(=O)N1 (single isomer, unassigned) [Compound A164]	–	< 1	–	< 50	1 to 10	–	25 to 50	50 to 75	–	–
COc1nc(C(=O)NC2CCC(=O)NC2=O)ccc1N1CCN(CC2CCC3(CC2)CN(c2ccc([C@@H]4c5ccc(O)cc5OC[C@@H]4c4ccccc4)cc2)C3)CC1 (single isomer, unassigned) [Compound A108]	–	1 to 10	–	500 to 5000	< 1	–	50 to 75	≥ 75	76.3	–
O=C1CCC(N2Cc3c(ccc4c3OC[C@H]3CN(CC5CCN(c6ccc([C@@H]7c8ccc(O)cc8OC[C@@H]7c7ccccc7)cn6)CC5)CCN43)C2=O)C(=O)N1 (single isomer, unassigned) [Compound A69]	–	1 to 10	–	50 to 500	1 to 10	–	< 25	25 to 50	–	–
O=C1CCC(Nc2ccc(C3CCN(CC4CC5(CCN(c6ccc([C@@H]7c8ccc(O)cc8OC[C@@H]7c7ccccc7)cc6)CC5)C4)CC3)c(F)c2)C(=O)N1 (single isomer, unassigned) [Compound A75]	–	< 1	–	50 to 500	1 to 10	–	25 to 50	50 to 75	–	–
O=C1CCC(N2C(=O)c3cc4c(cc3C2=O)CN(C(=O)CN2CCC3(CC2)CCN(c2ccc([C@H]5c6ccc(O)cc6OC[C@H]5c5ccccc5)cc2)CC3)C4)C(=O)N1 (single isomer, unassigned) [Compound A54, formate]	–	10 to 100	–	500 to 5000	1 to 10	–	25 to 50	≥ 75	–	–
O=C1CC[C@@H](Nc2ccc(C3CCN(C[C@@H]4COC5(CCN(c6ccc([C@@H]7c8ccc(O)cc8OC[C@@H]7c7ccccc7)cc6)CC5)C4)CC3)c(F)c2)C(=O)N1 (single isomer, unassigned) [Compound A165]	–	–	–	50 to 500	< 1	–	25 to 50	50 to 75	–	0.31
O=C1CCC(Nc2ccc(C34CCN(CC5COC6(CCN(c7ccc([C@H]8c9ccc(O)cc9OC[C@H]8c8ccccc8)cc7F)CC6)C5)CC3C4(F)F)cc2)C(=O)N1 (stereo partly drawn) [Compound A156, 3-((4-(7,7-difluoro-3-(((R)-8-(2-fluoro-4-((3R,4S)-7-hydroxy-3-phenylchroman-4-yl)phenyl)-1-oxa-8-azaspiro[4.5]decan-3-yl)methyl)-3-azabicyclo[4.1.0]heptan-6-yl)phenyl)amino)piperidine-2,6-dione]	–	> 100	–	500 to 5000	< 1	–	< 25	25 to 50	–	–
COC[C@H](C(=O)N1Cc2cc3c(cc2C1)C(=O)N(C1CCC(=O)NC1=O)C3)N1CCC2(CCN(c3ccc([C@@H]4c5ccc(O)cc5OC[C@@H]4c4ccccc4)cc3)CC2)CC1 (single isomer, unassigned) [Compound A60]	–	< 1	–	50 to 500	1 to 10	–	25 to 50	< 25	–	–
COc1cc(N2CCC(CN3CCN4c5cc6c(cc5OC[C@H]4C3)C(=O)N(C3CCC(=O)NC3=O)C6)CC2)ccc1[C@@H]1c2ccc(O)cc2OC[C@@H]1c1ccccc1 (single isomer, unassigned) [Compound A84, 3-((R)-3-((1-(4-((3S,4R)-7-hydroxy-3-phenylchroman-4-yl)-3-methoxyphenyl)piperidin-4-yl)methyl)-8-oxo-1,2,3,4,4a,5,8,10-octahydro-9H-pyrazino[1′,2′:4,5][1,4]oxazino[2,3-f]isoindol-9-yl)piperidine-2,6-dione]	–	< 1	–	500 to 5000	< 1	–	–	–	–	–
O=C1CC[C@@H](NC(=O)c2ccc(N3CCC(CN4CC5(CCN(c6ccc([C@H]7c8ccc(O)cc8OC[C@H]7c7ccccc7)cc6)CC5)C4)CC3)cn2)C(=O)N1 (single isomer, unassigned) [Compound A111]	–	< 1	–	500 to 5000	< 1	–	50 to 75	50 to 75	–	–
O=C1CCC(N2Cc3cc4c(cc3C2=O)OC[C@@H]2CN(CC3CCN(c5ccc([C@H]6c7ccc(O)cc7OC[C@H]6c6ccccc6)cn5)CC3)CCN42)C(=O)N1 (single isomer, unassigned) [Compound A61]	–	1 to 10	–	50 to 500	1 to 10	–	25 to 50	50 to 75	–	–
COc1cc(N2CCC(CN3CCN(c4cnc(C(=O)NC5CCC(=O)NC5=O)cc4OC)CC3)CC2)ccc1[C@H]1c2ccc(O)cc2OC[C@H]1c1ccccc1 (single isomer, unassigned) [Compound A127]	–	< 1	–	> 5000	< 1	–	50 to 75	25 to 50	–	–
